According to patent publication US8741836B2, “Polypeptides” (Novo Nordisk A/S, priority 2011, dated 2014):
Starred links: 1 amine or outer side, 2 acyl side, 3 side chain; linkers in the order of their positions; H or OH if unused. Positions of bridges follow the written chain, without caps; N, C: chain ends. Residues, ends and D or L forms follow the SMILES beside them. *: point of attachment. C20 diacid = O=C(O)CCCCCCCCCCCCCCCCCCC(=O)*; C18 diacid = O=C(O)CCCCCCCCCCCCCCCCC(=O)*; γGlu = O=C(O)[C@H](CCC(=O)[*:2])N[*:1]

Assay: Assay (III) ThT fibrillation assay for physical stability
Type: physicochemical
Settings: for ThT pH 4.0 lag time: pH 4.0, ThT fibrillation assay
From the text: Assay (III)—ThT Fibrillation Assays for the Assessment of Physical Stability of Protein formulations Low physical stability of a polypeptide may lead to amyloid fibril formation, which is observed as well-ordered, thread-like macromolecular structures in the sample eventually resulting in gel formation. This has traditionally been measured by visual inspection of the sample. However, that kind of measurement is very subjective and depending on the observer. Therefore, the application of a small molecule indicator probe is much more advantageous. Thioflavin T (ThT) is such a probe and has a distinct fluorescence signature when binding to fibrils [Naiki et al. (1989) Anal. Biochem. 177, 244-249; LeVine (1999) Methods. Enzymol. […], 274-284]. The time course for fibril formation can be described by a sigmoidal curve with the following expression [Nielsen et al. (2001) Biochemistry 40, 6036-6046]: [formula] Here, F is the ThT fluorescence at the time t. The constant t0 is the time needed to reach 50% of maximum fluorescence. […] Few of those intermediates nucleate to form a template onto which further intermediates may assembly and the fibrillation proceeds. The lag-time corresponds to the interval in which the critical mass of nucleus is built up and the apparent rate constant is the rate with which the fibril itself is formed. Sample Preparation Samples were prepared freshly before each assay. Each sample composition is described in each example. The pH of the sample was adjusted to the desired value using appropriate amounts of concentrated NaOH and HClO4 or HCl. Thioflavin T was added to the samples from a stock solution in H2O to a final concentration of 1 μM. Sample aliquots of 200 μl were placed in a 96 well microtiter plate (Packard OptiPlate™-96, white polystyrene). Usually, four or eight replica of each sample (corresponding to one test condition) were placed in one column of wells. The plate was sealed with Scotch Pad (Qiagen). Incubation and Fluorescence Measurement Incubation at given temperature, shaking and measurement of the ThT fluorescence emission were done in a Fluoroskan Ascent FL fluorescence platereader or Varioskan platereader (Thermo Labsystems). The temperature was adjusted to 37° C. The orbital shaking was adjusted to 960 rpm with an amplitude of 1 mm in all the presented data. Fluorescence measurement was done using excitation through a 444 nm filter and measurement of emission through a 485 nm filter. Each run was initiated by incubating the plate at the assay temperature for 10 min. The plate was measured every 20 minutes for a desired period of time. Between each measurement, the plate was shaken and heated as described. Data Handling The measurement points were saved in Microsoft Excel format for further processing and curve drawing and fitting was performed using GraphPad Prism. The background emission from ThT in the absence of fibrils was negligible. The data points are typically a mean of four or eight samples and shown with standard deviation error bars. Only data obtained in the same experiment (i.e. samples on the same plate) are presented in the same graph ensuring a relative measure of fibrillation between experiments. The data set may be fitted to Eq. (1). However, since full sigmodial curves in this case are not always achieved during the measurement time, the degree of fibrillation is expressed as ThT fluorescence tabulated as the mean of the samples and shown with the standard deviation at various time points. Measurement of Initial and Final Concentrations The polypeptide concentration in each of the tested formulations were measured both before application in the ThT fibrillation assay (“Initial”) and after completion of the ThT fibrillation (“After ThT assay”). Concentrations were determined by reverse HPLC methods using a pramlintide standard as a reference. Before measurement after completion 150 μl was collected from each of the replica and transferred to an Eppendorf tube. […]

Compound | ThT pH 4.0 lag time (physical stability in fibrillogenesis assay) [h] | ThT pH 4.0 lag time [h]
CC[C@H](C)[C@H](NC(=O)[C@@H]1CCCN1C(=O)CNC(=O)[C@H](Cc1ccccc1)NC(=O)[C@H](CC(N)=O)NC(=O)[C@H](CC(N)=O)NC(=O)[C@H](CO)NC(=O)[C@H](CO)NC(=O)[C@H](Cc1c[nH]cn1)NC(=O)[C@H](CCCNC(=N)N)NC(=O)[C@H](CC(C)C)NC(=O)[C@H](Cc1ccccc1)NC(=O)[C@H](CCC(=O)O)NC(=O)[C@H](C)NC(=O)[C@H](CC(C)C)NC(=O)[C@H](CCCNC(=N)N)NC(=O)[C@H](CCC(N)=O)NC(=O)[C@@H](NC(=O)[C@H](C)NC(=O)[C@@H]1CSSC[C@H](NC(=O)CNC(=O)CC[C@H](NC(=O)CCCCCCCCCCCCCCCCCCC(=O)O)C(=O)O)C(=O)N[C@@H](CC(N)=O)C(=O)N[C@@H]([C@@H](C)O)C(=O)N[C@@H](C)C(=O)N[C@@H]([C@@H](C)O)C(=O)N1)[C@@H](C)O)C(=O)N[C@@H](CC(C)C)C(=O)N1CCC[C@H]1C(=O)N1CCC[C@H]1C(=O)N[C@H](C(=O)N[C@@H](CC(N)=O)C(=O)N[C@H](C(=O)NCC(=O)N[C@@H](CO)C(=O)N[C@@H](CC(N)=O)C(=O)N[C@H](C(=O)N1CCC[C@H]1C(N)=O)[C@@H](C)O)C(C)C)[C@@H](C)O [Example 88, N-alpha-[(S)-4-Carboxy-4-(19-carboxynonadecanoylamino)butyryl]-[Gly1,Glu14,Arg17,Pro37]-pramlintide] ({C20 diacid-γGlu}-GCNTATCATQRLAEFLRHSSNNFGPILPPTNVGSNTP-NH2; disulfide 2-7) | >45 | >45
CC[C@H](C)[C@H](NC(=O)[C@@H]1CCCN1C(=O)CNC(=O)[C@H](Cc1ccccc1)NC(=O)[C@H](CCC(N)=O)NC(=O)[C@H](CCC(N)=O)NC(=O)[C@H](CO)NC(=O)[C@H](CO)NC(=O)[C@H](Cc1c[nH]cn1)NC(=O)[C@H](CCCNC(=N)N)NC(=O)[C@H](CC(C)C)NC(=O)[C@H](Cc1ccccc1)NC(=O)[C@H](CCC(=O)O)NC(=O)[C@H](C)NC(=O)[C@H](CC(C)C)NC(=O)[C@H](CCCNC(=N)N)NC(=O)[C@H](CCC(N)=O)NC(=O)[C@@H](NC(=O)[C@H](C)NC(=O)[C@@H]1CSSC[C@H](NC(=O)[C@H](CCC(=O)O)NC(=O)[C@H](CCCNC(=N)N)NC(=O)[C@H](CCC(=O)O)NC(=O)CC[C@H](NC(=O)CCCCCCCCCCCCCCCCCCC(=O)O)C(=O)O)C(=O)N[C@@H](CC(N)=O)C(=O)N[C@@H]([C@@H](C)O)C(=O)N[C@@H](C)C(=O)N[C@@H]([C@@H](C)O)C(=O)N1)[C@@H](C)O)C(=O)N[C@@H](CC(C)C)C(=O)N1CCC[C@H]1C(=O)N1CCC[C@H]1C(=O)N[C@H](C(=O)N[C@@H](CCC(N)=O)C(=O)N[C@H](C(=O)NCC(=O)N[C@@H](CO)C(=O)N[C@@H](CCC(N)=O)C(=O)N[C@H](C(=O)N1CCC[C@H]1C(N)=O)[C@@H](C)O)C(C)C)[C@@H](C)O [Example 164, N-alpha-[(S)-4-Carboxy-4-(19-carboxynonadecanoylamino)butyryl]-Glu-Arg-[Glu1,Glu14,Arg17,Gln21,Gln22,Gln31,Gln35,Pro37]-pramlintide] ({C20 diacid-γGlu}-ERECNTATCATQRLAEFLRHSSQQFGPILPPTQVGSQTP-NH2; disulfide 4-9 (inferred)) | >45 | >45
CC[C@H](C)[C@H](NC(=O)[C@@H]1CCCN1C(=O)CNC(=O)[C@H](Cc1ccccc1)NC(=O)[C@H](CC(N)=O)NC(=O)[C@H](CCC(N)=O)NC(=O)[C@H](CO)NC(=O)[C@H](CO)NC(=O)[C@H](Cc1c[nH]cn1)NC(=O)[C@H](Cc1c[nH]cn1)NC(=O)[C@H](CC(C)C)NC(=O)[C@H](Cc1ccccc1)NC(=O)[C@H](CCC(=O)O)NC(=O)[C@H](C)NC(=O)[C@H](CC(C)C)NC(=O)[C@H](CCCNC(=N)N)NC(=O)[C@H](CCC(N)=O)NC(=O)[C@@H](NC(=O)[C@H](C)NC(=O)[C@@H]1CSSC[C@H](NC(=O)[C@H](CCCCN)NC(=O)CC[C@H](NC(=O)CCCCCCCCCCCCCCCCCCC(=O)O)C(=O)O)C(=O)N[C@@H](CC(N)=O)C(=O)N[C@@H]([C@@H](C)O)C(=O)N[C@@H](C)C(=O)N[C@@H]([C@@H](C)O)C(=O)N1)[C@@H](C)O)C(=O)N[C@@H](CC(C)C)C(=O)N1CCC[C@H]1C(=O)N1CCC[C@H]1C(=O)N[C@H](C(=O)N[C@@H](CC(N)=O)C(=O)N[C@H](C(=O)NCC(=O)N[C@@H](CO)C(=O)N[C@@H](CC(N)=O)C(=O)N[C@H](C(=O)N1CCC[C@H]1C(N)=O)[C@@H](C)O)C(C)C)[C@@H](C)O [Example 130, N-alpha-[(S)-4-Carboxy-4-(19-carboxynonadecanoylamino)butyryl]-[Glu14,His17,Gln21,Pro37]-pramlintide] ({C20 diacid-γGlu}-KCNTATCATQRLAEFLHHSSQNFGPILPPTNVGSNTP-NH2; disulfide 2-7) | >45 | >45
CC[C@H](C)[C@H](NC(=O)[C@@H]1CCCN1C(=O)CNC(=O)[C@H](Cc1ccccc1)NC(=O)[C@H](CC(N)=O)NC(=O)[C@H](CC(N)=O)NC(=O)[C@H](CO)NC(=O)[C@H](CO)NC(=O)[C@H](Cc1c[nH]cn1)NC(=O)[C@H](Cc1c[nH]cn1)NC(=O)[C@H](CC(C)C)NC(=O)[C@H](Cc1ccccc1)NC(=O)[C@H](CCC(=O)O)NC(=O)[C@H](C)NC(=O)[C@H](CC(C)C)NC(=O)[C@H](CCCNC(=N)N)NC(=O)[C@H](CCC(N)=O)NC(=O)[C@@H](NC(=O)[C@H](C)NC(=O)[C@@H]1CSSC[C@H](NC(=O)[C@H](CCCCN)NC(=O)[C@H](Cc2c[nH]cn2)NC(=O)CC[C@H](NC(=O)CCCCCCCCCCCCCCCCC(=O)O)C(=O)O)C(=O)N[C@@H](CC(N)=O)C(=O)N[C@@H]([C@@H](C)O)C(=O)N[C@@H](C)C(=O)N[C@@H]([C@@H](C)O)C(=O)N1)[C@@H](C)O)C(=O)N[C@@H](CC(C)C)C(=O)N1CCC[C@H]1C(=O)N1CCC[C@H]1C(=O)N[C@H](C(=O)N[C@@H](CC(N)=O)C(=O)N[C@H](C(=O)NCC(=O)N[C@@H](CO)C(=O)N[C@@H](Cc1c[nH]cn1)C(=O)N[C@H](C(=O)N[C@@H](Cc1ccc(O)cc1)C(N)=O)[C@@H](C)O)C(C)C)[C@@H](C)O [Example 70, N-alpha-[(S)-4-Carboxy-4-(17-carboxyheptadecanoylamino)butyryl]-His-[Glu14,His17,His35]-pramlintide] ({C18 diacid-γGlu}-HKCNTATCATQRLAEFLHHSSNNFGPILPPTNVGSHTY-NH2; disulfide 3-8 (inferred)) |  | >45
CC[C@H](C)[C@H](NC(=O)[C@@H]1CCCN1C(=O)CNC(=O)[C@H](Cc1ccccc1)NC(=O)[C@H](CC(N)=O)NC(=O)[C@H](CC(N)=O)NC(=O)[C@H](CO)NC(=O)[C@H](CO)NC(=O)[C@H](Cc1c[nH]cn1)NC(=O)[C@H](Cc1c[nH]cn1)NC(=O)[C@H](CC(C)C)NC(=O)[C@H](Cc1ccccc1)NC(=O)[C@H](CCC(=O)O)NC(=O)[C@H](C)NC(=O)[C@H](CC(C)C)NC(=O)[C@H](CCCNC(=N)N)NC(=O)[C@H](CCC(N)=O)NC(=O)[C@@H](NC(=O)[C@H](C)NC(=O)[C@@H]1CSSC[C@H](NC(=O)[C@H](CCCNC(=N)N)NC(=O)CC[C@H](NC(=O)CCCCCCCCCCCCCCCCCCC(=O)O)C(=O)O)C(=O)N[C@@H](CC(N)=O)C(=O)N[C@@H]([C@@H](C)O)C(=O)N[C@@H](C)C(=O)N[C@@H]([C@@H](C)O)C(=O)N1)[C@@H](C)O)C(=O)N[C@@H](CC(C)C)C(=O)N1CCC[C@H]1C(=O)N1CCC[C@H]1C(=O)N[C@H](C(=O)N[C@@H](CC(N)=O)C(=O)N[C@H](C(=O)NCC(=O)N[C@@H](CO)C(=O)N[C@@H](Cc1c[nH]cn1)C(=O)N[C@H](C(=O)N[C@@H](Cc1ccc(O)cc1)C(N)=O)[C@@H](C)O)C(C)C)[C@@H](C)O [Example 95, N-alpha-[(S)-4-Carboxy-4-(19-carboxynonadecanoylamino)butyryl]-[Arg1,Glu14,His17,His35]-pramlintide] ({C20 diacid-γGlu}-RCNTATCATQRLAEFLHHSSNNFGPILPPTNVGSHTY-NH2; disulfide 2-7 (inferred)) |  | >45
